Columns and labels:
Conditions in all cases: 1 µM, ATP at Km
PRKAA1 = PRKAA1 (Homo sapiens, UniProt Q13131)
CHK1 = CHK1 (Homo sapiens, UniProt O14757)
STK33 = STK33 (Homo sapiens, UniProt Q9BYT3)
CDK2/CYCLINA = CDK2/CYCLINA (Homo sapiens, UniProt P24941)
KDR = KDR (Homo sapiens, UniProt P35968)
SAPK2B = SAPK2B (Homo sapiens, UniProt Q15759)
FGFR4 = FGFR4 (Homo sapiens, UniProt P22455)
PKG1BETA = PKG1BETA (Homo sapiens, UniProt Q13976)
CAMKIIBETA = CAMKIIBETA (Homo sapiens, UniProt Q13554)
ULK2 = ULK2 (Homo sapiens, UniProt Q8IYT8)
FAK = FAK (Homo sapiens, UniProt Q05397)
GRK5 = GRK5 (Homo sapiens, UniProt P34947)
LIMK1 = LIMK1 (Homo sapiens, UniProt P53667)
AURKA = AURKA (Homo sapiens, UniProt O14965)
AURKB = AURKB (Homo sapiens, UniProt Q96GD4)
IRR = IRR (Homo sapiens, UniProt P14616)
PYK2 = PYK2 (Homo sapiens, UniProt Q14289)
EPHA3 = EPHA3 (Homo sapiens, UniProt P29320)
PKCALPHA = PKCALPHA (Homo sapiens, UniProt P17252)
DRAK1 = DRAK1 (Homo sapiens, UniProt Q9UEE5)
PI3K DELTA = PI3K DELTA (Homo sapiens, UniProt O00329)
MKK7BETA = MKK7BETA (Homo sapiens, UniProt O14733)
CAMKIV = CAMKIV (Homo sapiens, UniProt Q16566)
CK2ALPHA2 = CK2ALPHA2 (Homo sapiens, UniProt P19784)
FGFR3 = FGFR3 (Homo sapiens, UniProt P22607)
GSK3ALPHA = GSK3ALPHA (Homo sapiens, UniProt P49840)
CK1GAMMA1 = CK1GAMMA1 (Homo sapiens, UniProt Q9HCP0)
EEF-2K = EEF-2K (Homo sapiens, UniProt O00418)
NEK7 = NEK7 (Homo sapiens, UniProt Q8TDX7)
JAK2 = JAK2 (Homo sapiens, UniProt O60674)
PKBALPHA = PKBALPHA (Homo sapiens, UniProt P31749)
[…] = […] (Homo sapiens, UniProt Q13555)
TRKB = TRKB (Homo sapiens, UniProt Q16620)
HIPK2 = HIPK2 (Homo sapiens, UniProt Q9H2X6)
EPHB4 = EPHB4 (Homo sapiens, UniProt P54760)
PI3K GAMMA = PI3K GAMMA (Homo sapiens, UniProt P48736)
RON = RON (Homo sapiens, UniProt Q04912)
TSSK2 = TSSK2 (Homo sapiens, UniProt Q96PF2)
TLK2 = TLK2 (Homo sapiens, UniProt Q86UE8)
RSK3 = RSK3 (Homo sapiens, UniProt Q15349)
FGFR1 = FGFR1 (Homo sapiens, UniProt P11362)
GSK3BETA = GSK3BETA (Homo sapiens, UniProt P49841)
MUSK = MUSK (Homo sapiens, UniProt O15146)
AXL = AXL (Homo sapiens, UniProt P30530)
Chain of AXL (P30530 26-894): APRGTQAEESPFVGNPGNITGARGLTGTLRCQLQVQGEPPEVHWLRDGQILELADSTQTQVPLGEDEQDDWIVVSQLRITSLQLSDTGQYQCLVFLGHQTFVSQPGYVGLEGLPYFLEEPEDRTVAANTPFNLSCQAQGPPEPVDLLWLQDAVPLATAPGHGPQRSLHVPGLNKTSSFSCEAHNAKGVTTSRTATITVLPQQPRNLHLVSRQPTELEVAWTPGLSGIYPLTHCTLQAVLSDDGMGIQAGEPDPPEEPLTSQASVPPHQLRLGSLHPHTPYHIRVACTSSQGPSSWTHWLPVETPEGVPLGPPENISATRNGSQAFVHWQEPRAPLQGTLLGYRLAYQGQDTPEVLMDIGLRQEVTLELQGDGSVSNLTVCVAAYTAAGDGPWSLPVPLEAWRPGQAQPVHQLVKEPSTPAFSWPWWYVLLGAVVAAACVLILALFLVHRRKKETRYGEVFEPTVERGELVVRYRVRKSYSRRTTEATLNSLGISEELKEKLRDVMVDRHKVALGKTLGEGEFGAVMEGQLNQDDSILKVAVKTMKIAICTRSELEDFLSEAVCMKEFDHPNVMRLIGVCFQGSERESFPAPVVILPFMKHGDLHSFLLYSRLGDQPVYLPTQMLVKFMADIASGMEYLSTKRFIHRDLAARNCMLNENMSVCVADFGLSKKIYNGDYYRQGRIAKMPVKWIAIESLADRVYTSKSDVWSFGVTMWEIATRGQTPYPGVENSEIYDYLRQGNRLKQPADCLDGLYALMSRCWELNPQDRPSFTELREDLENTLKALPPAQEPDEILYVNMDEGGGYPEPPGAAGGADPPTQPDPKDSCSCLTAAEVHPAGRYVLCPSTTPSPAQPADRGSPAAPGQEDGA

Chain of KDR (P35968 20-1356): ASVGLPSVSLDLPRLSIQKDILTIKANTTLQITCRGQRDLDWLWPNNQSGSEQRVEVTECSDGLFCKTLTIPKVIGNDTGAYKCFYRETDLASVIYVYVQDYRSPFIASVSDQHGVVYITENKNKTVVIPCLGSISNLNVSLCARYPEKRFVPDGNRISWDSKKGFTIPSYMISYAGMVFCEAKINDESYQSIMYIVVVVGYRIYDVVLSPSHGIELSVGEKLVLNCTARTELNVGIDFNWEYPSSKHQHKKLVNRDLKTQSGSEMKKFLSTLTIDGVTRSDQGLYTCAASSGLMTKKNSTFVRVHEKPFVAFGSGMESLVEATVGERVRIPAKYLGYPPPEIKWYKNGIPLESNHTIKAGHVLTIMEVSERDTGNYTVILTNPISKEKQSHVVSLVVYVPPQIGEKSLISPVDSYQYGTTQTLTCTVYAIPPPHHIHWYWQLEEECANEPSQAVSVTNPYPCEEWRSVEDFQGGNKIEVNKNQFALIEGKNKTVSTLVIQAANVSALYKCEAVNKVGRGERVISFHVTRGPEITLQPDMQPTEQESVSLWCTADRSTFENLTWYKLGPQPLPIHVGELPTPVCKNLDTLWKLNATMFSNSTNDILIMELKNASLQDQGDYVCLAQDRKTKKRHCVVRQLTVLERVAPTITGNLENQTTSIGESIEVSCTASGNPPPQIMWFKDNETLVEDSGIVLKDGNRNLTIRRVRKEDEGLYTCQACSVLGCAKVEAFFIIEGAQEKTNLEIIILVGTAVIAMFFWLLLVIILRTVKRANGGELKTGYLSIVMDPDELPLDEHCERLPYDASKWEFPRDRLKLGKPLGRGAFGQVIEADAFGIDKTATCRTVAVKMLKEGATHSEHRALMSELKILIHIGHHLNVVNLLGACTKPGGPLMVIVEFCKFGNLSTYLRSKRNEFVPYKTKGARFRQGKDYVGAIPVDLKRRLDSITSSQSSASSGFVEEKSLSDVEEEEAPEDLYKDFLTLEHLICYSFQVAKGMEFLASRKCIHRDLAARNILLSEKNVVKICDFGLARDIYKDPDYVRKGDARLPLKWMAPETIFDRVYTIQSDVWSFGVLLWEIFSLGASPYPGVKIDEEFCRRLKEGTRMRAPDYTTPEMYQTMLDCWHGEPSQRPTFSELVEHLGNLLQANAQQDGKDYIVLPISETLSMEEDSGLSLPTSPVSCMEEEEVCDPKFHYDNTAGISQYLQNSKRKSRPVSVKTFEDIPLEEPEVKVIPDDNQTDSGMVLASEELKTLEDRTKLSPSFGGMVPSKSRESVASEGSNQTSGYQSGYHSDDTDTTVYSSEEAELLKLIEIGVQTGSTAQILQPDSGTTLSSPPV
Chain of CAMKIV (Q16566 whole entry): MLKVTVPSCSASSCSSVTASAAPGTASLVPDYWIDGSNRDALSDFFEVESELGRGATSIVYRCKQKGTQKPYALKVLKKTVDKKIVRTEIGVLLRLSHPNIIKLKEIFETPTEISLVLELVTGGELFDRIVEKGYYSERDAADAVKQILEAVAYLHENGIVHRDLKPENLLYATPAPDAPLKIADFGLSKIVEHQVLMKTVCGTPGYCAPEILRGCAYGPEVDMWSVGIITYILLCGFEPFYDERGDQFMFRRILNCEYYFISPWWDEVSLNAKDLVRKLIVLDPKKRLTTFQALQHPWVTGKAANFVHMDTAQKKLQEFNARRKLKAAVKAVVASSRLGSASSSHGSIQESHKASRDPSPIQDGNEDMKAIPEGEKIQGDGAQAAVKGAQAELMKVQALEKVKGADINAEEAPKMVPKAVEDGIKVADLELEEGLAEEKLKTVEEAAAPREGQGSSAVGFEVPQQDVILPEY
Chain of CK1GAMMA1 (Q9HCP0 whole entry): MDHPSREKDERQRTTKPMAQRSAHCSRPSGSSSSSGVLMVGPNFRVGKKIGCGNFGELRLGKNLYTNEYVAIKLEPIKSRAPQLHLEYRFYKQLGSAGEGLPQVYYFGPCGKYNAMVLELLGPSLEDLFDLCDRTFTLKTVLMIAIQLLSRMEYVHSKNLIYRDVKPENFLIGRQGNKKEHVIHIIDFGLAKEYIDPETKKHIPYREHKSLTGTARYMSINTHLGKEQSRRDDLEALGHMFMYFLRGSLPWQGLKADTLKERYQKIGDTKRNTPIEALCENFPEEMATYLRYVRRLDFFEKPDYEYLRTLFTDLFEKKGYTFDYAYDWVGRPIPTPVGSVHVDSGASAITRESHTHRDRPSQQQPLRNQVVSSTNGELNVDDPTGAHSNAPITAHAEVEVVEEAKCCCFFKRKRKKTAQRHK
Chain of PRKAA1 (Q13131 whole entry): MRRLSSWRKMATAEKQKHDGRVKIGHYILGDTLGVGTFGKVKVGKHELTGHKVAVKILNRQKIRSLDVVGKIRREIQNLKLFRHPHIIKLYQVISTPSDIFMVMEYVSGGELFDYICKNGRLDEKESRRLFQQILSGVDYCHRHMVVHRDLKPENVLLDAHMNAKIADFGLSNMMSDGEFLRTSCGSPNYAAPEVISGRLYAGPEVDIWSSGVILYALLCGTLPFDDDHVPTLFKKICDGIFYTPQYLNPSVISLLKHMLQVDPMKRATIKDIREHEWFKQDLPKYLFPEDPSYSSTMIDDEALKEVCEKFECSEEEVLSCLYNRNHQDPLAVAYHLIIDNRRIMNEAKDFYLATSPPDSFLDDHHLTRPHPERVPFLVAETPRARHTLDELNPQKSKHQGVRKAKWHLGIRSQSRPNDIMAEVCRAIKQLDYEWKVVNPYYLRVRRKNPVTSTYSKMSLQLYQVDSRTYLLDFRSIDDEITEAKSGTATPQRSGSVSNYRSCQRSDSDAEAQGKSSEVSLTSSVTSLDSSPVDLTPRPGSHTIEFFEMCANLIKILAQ
Chain of PRKAA1 (Q9Y478 whole entry partner): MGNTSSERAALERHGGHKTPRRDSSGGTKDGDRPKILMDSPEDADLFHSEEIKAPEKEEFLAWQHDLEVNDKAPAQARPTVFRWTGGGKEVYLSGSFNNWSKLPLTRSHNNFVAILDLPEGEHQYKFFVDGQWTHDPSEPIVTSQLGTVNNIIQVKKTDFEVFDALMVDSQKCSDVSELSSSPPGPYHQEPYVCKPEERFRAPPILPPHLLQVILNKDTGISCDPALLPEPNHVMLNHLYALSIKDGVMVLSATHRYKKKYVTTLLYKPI
Chain of PRKAA1 (P54619 whole entry partner): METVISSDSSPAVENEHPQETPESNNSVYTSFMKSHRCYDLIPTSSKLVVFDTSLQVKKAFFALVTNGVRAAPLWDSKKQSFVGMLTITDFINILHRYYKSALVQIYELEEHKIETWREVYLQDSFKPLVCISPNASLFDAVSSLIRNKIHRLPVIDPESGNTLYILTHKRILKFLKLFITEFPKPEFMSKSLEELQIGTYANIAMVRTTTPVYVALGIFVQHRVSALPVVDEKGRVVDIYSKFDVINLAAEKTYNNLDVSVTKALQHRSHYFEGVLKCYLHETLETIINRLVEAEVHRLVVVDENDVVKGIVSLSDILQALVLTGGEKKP
Chain of AURKB (Q96GD4 whole entry): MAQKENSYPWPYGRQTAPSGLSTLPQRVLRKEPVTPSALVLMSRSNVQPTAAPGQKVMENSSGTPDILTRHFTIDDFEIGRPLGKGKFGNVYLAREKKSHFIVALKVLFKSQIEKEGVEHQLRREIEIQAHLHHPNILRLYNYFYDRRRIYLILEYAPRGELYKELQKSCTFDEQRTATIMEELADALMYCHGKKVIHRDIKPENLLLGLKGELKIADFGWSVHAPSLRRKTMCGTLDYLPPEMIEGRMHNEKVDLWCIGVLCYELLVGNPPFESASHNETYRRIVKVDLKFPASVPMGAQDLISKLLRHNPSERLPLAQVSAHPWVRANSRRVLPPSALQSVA
Chain of DRAK1 (Q9UEE5 whole entry): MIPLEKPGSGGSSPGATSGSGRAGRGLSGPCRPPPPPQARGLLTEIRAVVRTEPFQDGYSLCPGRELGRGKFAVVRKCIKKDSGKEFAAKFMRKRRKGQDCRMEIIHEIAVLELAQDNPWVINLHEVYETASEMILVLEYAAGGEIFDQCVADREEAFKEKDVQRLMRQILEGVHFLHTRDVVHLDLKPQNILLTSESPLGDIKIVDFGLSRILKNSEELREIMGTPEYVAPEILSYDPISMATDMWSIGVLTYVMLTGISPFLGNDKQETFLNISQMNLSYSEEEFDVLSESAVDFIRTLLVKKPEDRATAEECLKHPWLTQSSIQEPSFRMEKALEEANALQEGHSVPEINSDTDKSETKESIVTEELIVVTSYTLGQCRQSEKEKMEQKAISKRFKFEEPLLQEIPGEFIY

Compound: COC1CN(C(=O)c2ccc3c(N)ncc(-c4ccc(-c5cnn(C)c5)cc4)c3n2)C1 [Compound 51]
- percentage effect (PRKAA1): -1%
- percentage effect (CHK1): -8%
- percentage effect (STK33): -15%
- percentage effect (CDK2/CYCLINA): 5%
- percentage effect (KDR): 0%
- percentage effect (SAPK2B): 0%
- percentage effect (FGFR4): 3%
- percentage effect (PKG1BETA): 1%
- percentage effect (CAMKIIBETA): -10%
- percentage effect (ULK2): 4%
- percentage effect (FAK): 3%
- percentage effect (GRK5): 6%
- percentage effect (LIMK1): 0%
- percentage effect (AURKA): -3%
- percentage effect (AURKB): 0%
- percentage effect (IRR): -2%
- percentage effect (PYK2): -4%
- percentage effect (EPHA3): 10%
- percentage effect (PKCALPHA): -10%
- percentage effect (DRAK1): 1%
- percentage effect (PI3K DELTA): -10%
- percentage effect (MKK7BETA): 9%
- percentage effect (CAMKIV): -17%
- percentage effect (CK2ALPHA2): 0%
- percentage effect (FGFR3): 7%
- percentage effect (GSK3ALPHA): -17%
- percentage effect (CK1GAMMA1): -8%
- percentage effect (EEF-2K): 2%
- percentage effect (NEK7): -6%
- percentage effect (JAK2): -2%
- percentage effect (PKBALPHA): -11%
- percentage effect ([…]): 5%
- percentage effect (TRKB): -23%
- percentage effect (HIPK2): -8%
- percentage effect (EPHB4): 8%
- percentage effect (PI3K GAMMA): -18%
- percentage effect (RON): 15%
- percentage effect (TSSK2): 15%
- percentage effect (TLK2): 2%
- percentage effect (RSK3): 4%
- percentage effect (FGFR1): 10%
- percentage effect (GSK3BETA): 1%
- percentage effect (MUSK): 3%
- percentage effect (AXL): 27%

Compound: COC1CN(C(=O)c2ccc3c(N)ncc(-c4ccc(-c5cnn(C)c5)cc4)c3c2)C1 [Compound 59]
- percentage effect (PRKAA1): -3%
- percentage effect (CHK1): -9%
- percentage effect (STK33): 1%
- percentage effect (CDK2/CYCLINA): -5%
- percentage effect (KDR): -5%
- percentage effect (SAPK2B): 43%
- percentage effect (FGFR4): 14%
- percentage effect (PKG1BETA): 1%
- percentage effect (CAMKIIBETA): 5%
- percentage effect (ULK2): 8%
- percentage effect (FAK): -18%
- percentage effect (GRK5): 22%
- percentage effect (LIMK1): 5%
- percentage effect (AURKA): -21%
- percentage effect (AURKB): 14%
- percentage effect (IRR): -5%
- percentage effect (PYK2): -1%
- percentage effect (EPHA3): 10%
- percentage effect (PKCALPHA): -2%
- percentage effect (DRAK1): -18%
- percentage effect (PI3K DELTA): -10%
- percentage effect (MKK7BETA): -23%
- percentage effect (CAMKIV): 23%
- percentage effect (CK2ALPHA2): 13%
- percentage effect (FGFR3): -4%
- percentage effect (GSK3ALPHA): -29%
- percentage effect (CK1GAMMA1): -8%
- percentage effect (EEF-2K): 8%
- percentage effect (NEK7): -26%
- percentage effect (JAK2): 3%
- percentage effect (PKBALPHA): 4%
- percentage effect ([…]): 2%
- percentage effect (TRKB): 0%
- percentage effect (HIPK2): 16%
- percentage effect (EPHB4): 6%
- percentage effect (PI3K GAMMA): -7%
- percentage effect (RON): -11%
- percentage effect (TSSK2): -26%
- percentage effect (TLK2): -5%
- percentage effect (RSK3): 4%
- percentage effect (FGFR1): 11%
- percentage effect (GSK3BETA): -9%
- percentage effect (MUSK): -18%
- percentage effect (AXL): -12%

Reference: PMC4904262 (ACS Medicinal Chemistry Letters, 2016)
